Experiments:
[1] = target: T1, glycine receptor α1 subunit (GlyR α1) (Mus musculus, UniProt Q64018); assay: whole-cell patch-clamp dose-response of bath-applied glycine in brain stem slices
T1 construct: gene Glra1; native GlyRs in hypoglossal motoneurons of brain stem slices (Glra1+/+, P18-24); with GlyR β subunit (Glrb)

[2] = target: T2, glycine receptor α1 subunit (GlyR α1 Q177K, shaky) (Mus musculus, UniProt Q64018, Q205K); assay: as above
T2 construct: gene Glra1; native GlyRs in hypoglossal motoneurons of brain stem slices (Glra1sh/sh, P18-24); with GlyR β subunit (Glrb)

NCC(=O)O [glycine] was tested, and the EC50 [1] was 277 µM and the EC50 [2] was 384 µM.
